Laboratory results as given in patent EP0403398A1, “New thioformamide derivatives” (RHONE-POULENC SANTE, priority 1989, dated 1990).

Test system: isolated rat aorta
Assay: Test A: activity against contractions induced by low K+ concentrations in the isolated rat aorta
Details: concentration reducing the 20mM K⁺-induced contraction by 90%; rat thoracic aorta strips denuded of endothelium, Krebs solution, cumulative concentrations; read-out: Activity Test A EC₉₀
Experimental: The test methods used were adapted from those described by Winslow et al [Eur.J.Pharmacol., 131, 219-228 (1986)] and Karaki [J.Pharmacol. Methods, 18, 1-21 (1987)] for differentiating vaso-relaxant activity. Test A : Activity against contractions induced by low K⁺ concentrations in the isolated rat aorta Thoracic aorta was removed from rats and transverse strips, denuded of endothelium, were suspended in a bath containing Krebs solution. The tension was recorded and a contraction induced by addition of 20mM K⁺ (potassium ion) to the bathing solution. The test compound was added to the bath as a solution in increasing cumulative concentration. The concentration in the bathing solution of the test compound which reduced the K⁺-induced contraction by 90% was determined and expressed in µM as the effective concentration (EC₉₀), given in Table I. Table I

| Structure (SMILES) | EC90 [nM] |
| --- | --- |
| CNC(=S)[C@]1(c2cccnc2)CCCC[C@H]1N[C@H](C)c1ccccc1 [BD, (2R,1S)-2-[(R)-1-phenylethylamino]-1-(3-pyridyl)cyclohexane-N-methylcarbothioamide] | 0.03 |
| CNC(=S)[C@]1(c2cccnc2)CCCC[C@H]1NOCc1ccccc1 (racemic) [AA, (±)-trans-2-benzyloxyamino-N-methyl-1-(3-pyridyl)cyclohexanecarbothioamide] | 3 |
| CNC(=S)[C@]1(c2cccnc2)CCCC[C@H]1N[C@H](C)c1cccc2ccccc12 [BE, (2R,1S)-2-[(R)-1-(1-naphthyl)ethylamino] 1-(3-pyridyl)cyclohexane-N-methylcarbothioamide] | 3 |
| CNC(=S)[C@]1(c2cccnc2)CCCC[C@H]1NOC (racemic) [Compound AB, (±)-trans-2-methoxyamino-N-methyl-1-(3-pyridyl)cyclohexanecarbothioamide] | 300 |
